Results taken from patent publication US11690850B2, “Inhibitors of receptor interacting protein kinase I for the treatment of disease” (Board of Regents, The University of Texas System, priority 2019, dated 2023).

Legend:
[1] = test system: human monocytic cell line U937; experiment: Human U937 Cellular Necroptosis Assay; format: cell-based; settings: U-937; U937 cells stimulated with 25 ng/mL human TNFalpha and 25 μM z-VAD-FMK, 22 hr, viability by Cell Titer-Glo 2.0; average value across multiple runs; read-out: hU937 IC50
Description: Human U937 Cellular Necroptosis Assay
The human monocytic cell line U937 (CRL-1593.2) was purchased from ATCC. The cells were routinely maintained in RPMI-1640 Medium (Gibco, Catalog #11875-093) supplemented with 10% heat inactivated fetal bovine serum (Gibco, Catalog #16140-071), 100 units/mL penicillin and 100 μg/mL streptomycin (Gibco, Catalog #15140-122), in a humidified incubator (37° C., 5% CO2). For the assay, cells were resuspended in RPMI-1640 phenol red free Media (Gibco, Catalog #11835-030) supplemented with 10% fetal bovine serum (Sigma, Catalog #F2442), 100 units/mL penicillin and 100 ug/mL streptomycin. Cells were stimulated with 25 ng/mL human TNFalpha (Cell Sciences, Catalog #CSI15659B) and 25 μM z-VAD-FMK (R&D Systems, Catalog #FMK001) followed by seeding 5000 cells per well in a volume of 40 μL to a white, CulturPlate-384 (Perkin Elmer, Catalog #6007680). Stock solutions of the test compounds were prepared in 100% DMSO (Sigma, Catalog #D2650) and serially diluted 1:3 using 100% DMSO. Compounds were additionally diluted 1:40 in assay medium, and 10 μL/well was transferred to the plate. Following the compound addition the plate was incubated at 37° C. and 5% CO2 for 22 hr. After 22 hr, viability was assessed with the addition of 20 μL of Cell Titer-Glo 2.0 (Promega, Catalog #G9243). The tissue culture plate was shaken on an orbital shaker at 300 RPM for 15 minutes at room temperature in the dark. Luminescence was measured using a PerkinElmer Envision™ plate reader. IC50 values were calculated using a four-parameter logistic curve fit using Genedata Screener software. Results are shown below in Table 5, where the average value across multiple runs is given.

[2] = target: RIPK1 (Homo sapiens (Human), UniProt Q13546); experiment: ADP-Glo Kinase Assay; format: biochemical; settings: 5 nM RIPK1 protein, 50 μM ATP, 6 hr reaction, average value across multiple runs
Chain of RIPK1 (Q13546 1-327): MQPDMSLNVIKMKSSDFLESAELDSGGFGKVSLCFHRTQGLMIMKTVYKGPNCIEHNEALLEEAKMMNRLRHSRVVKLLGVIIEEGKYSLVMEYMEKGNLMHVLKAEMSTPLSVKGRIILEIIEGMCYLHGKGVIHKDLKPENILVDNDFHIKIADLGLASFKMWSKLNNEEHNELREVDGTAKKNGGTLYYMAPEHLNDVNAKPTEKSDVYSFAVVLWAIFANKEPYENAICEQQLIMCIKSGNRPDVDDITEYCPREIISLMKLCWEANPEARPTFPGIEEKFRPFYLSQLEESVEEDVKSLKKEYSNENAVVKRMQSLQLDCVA
Procedure, shortened: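 ADP formed from ATP is measured by ADP-Glo luminescence with 5 nM RIPK1, preincubated 10 min with compound, then 50 μM ATP for 6 h. Buffer is 50 mM HEPES pH 7.5, 50 mM NaCl, 30 mM MgCl2, 1 mM DTT, 0.05% BSA, 0.02% CHAPS. IC50 comes from a four-parameter fit, averaged over runs.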

Cc1cc(=O)c(C(=O)NC2CCc3cc(F)cc(F)c3NC2=O)nn1-c1ccccc1 (centres unmarked) [Example 48, N-(7,9-difluoro-2-oxo-2,3,4,5-tetrahydro-1H-benzo[b]azepin-3-yl)-6-methyl-4-oxo-1-phenyl-1,4-dihydropyridazine-3-carboxamide] showed an IC50 [1] of 70 nM and an IC50 [2] of 51 nM.

Cc1cc(=O)c(C(=O)NC2CCc3cc(F)cc(F)c3N(C)C2=O)nn1-c1ccccc1 (centres unmarked) [Example 49, N-(7,9-difluoro-1-methyl-2-oxo-2,3,4,5-tetrahydro-1H-benzo[b]azepin-3-yl)-6-methyl-4-oxo-1-phenyl-1,4-dihydropyridazine-3-carboxamide] gave an IC50 [1] of 66 nM and an IC50 [2] of 64 nM.

In the case of Cc1cc(=O)c(C(=O)N[C@H]2COc3cccnc3N(C)C2=O)nn1-c1ccccc1 [Example 50, (S)-6-methyl-N-(5-methyl-4-oxo-2,3,4,5-tetrahydropyrido[3,2-b][1,4]oxazepin-3-yl)-4-oxo-1-phenyl-1,4-dihydropyridazine-3-carboxamide], the IC50 [1] is reported as 33 nM and the IC50 [2] is reported as 28 nM.

In the case of Cc1ccc(-n2nc(C(=O)NC3CCc4ccccc4NC3=O)c(=O)cc2C)cn1 (centres unmarked) [Example 51, 6-methyl-1-(6-methylpyridin-3-yl)-4-oxo-N-(2-oxo-2,3,4,5-tetrahydro-1H-benzo[b]azepin-3-yl)-1,4-dihydro-pyridazine-3-carboxamide], the IC50 [1] is reported as 1700 nM and the IC50 [2] is reported as 1970 nM.

For Cc1cc(=O)c(C(=O)NC2CCc3ccccc3NC2=O)nn1-c1cccc(C#N)c1 (centres unmarked) [Example 53, 1-(3-cyanophenyl)-6-methyl-4-oxo-N-(2-oxo-2,3,4,5-tetrahydro-1H-benzo[b]azepin-3-yl)-1,4-dihydropyridazine-3-carboxamide], the IC50 [1] was 591 nM and the IC50 [2] was 652 nM.

Cc1cc(=O)c(C(=O)NC2CCc3ccccc3NC2=O)nn1-c1cccc(F)c1 (centres unmarked) [Example 54, 1-(3-fluorophenyl)-6-methyl-4-oxo-N-(2-oxo-2,3,4,5-tetrahydro-1H-benzo[b]-azepin-3-yl)-1,4-dihydropyridazine-3-carboxamide] showed an IC50 [1] of 53 nM and an IC50 [2] of 27 nM.

Cc1cc(=O)c(C(=O)N[C@H]2COc3cc(C#N)ccc3N(C)C2=O)nn1-c1ccccc1 [Example 55, (S)-N-(8-cyano-5-methyl-4-oxo-2,3,4,5-tetrahydrobenzo[b][1,4]oxazepin-3-yl)-6-methyl-4-oxo-l-phenyl-1,4-dihydropyridazine-3-carboxamide] gave an IC50 [1] of 54 nM and an IC50 [2] of 33 nM.

Cc1cc(=O)c(C(=O)NC2CCc3ccccc3NC2=O)nn1-c1ccc(C#N)cc1 (centres unmarked) [Example 56, 1-(4-cyanophenyl)-6-methyl-4-oxo-N-(2-oxo-2,3,4,5-tetrahydro-1H-benzo[b]-azepin-3-yl)-1,4-dihydropyridazine-3-carboxamide] showed an IC50 [1] of 292 nM and an IC50 [2] of 85 nM.

For Cc1cc(=O)c(C(=O)NC2CCc3ccccc3NC2=O)nn1-c1ccc(F)cc1 (centres unmarked) [Example 57, 1-(4-fluorophenyl)-6-methyl-4-oxo-N-(2-oxo-2,3,4,5-tetrahydro-1H-benzo[b]-azepin-3-yl)-1,4-dihydropyridazine-3-carboxamide], the IC50 [1] was 41 nM and the IC50 [2] was 20 nM.

Cc1cc(=O)c(C(=O)NC2CCc3ccccc3NC2=O)nn1-c1ccccc1F (centres unmarked) [Example 59, 1-(2-fluorophenyl)-6-methyl-4-oxo-N-(2-oxo-2,3,4,5-tetrahydro-1H-benzo[b]-azepin-3-yl)-1,4-dihydropyridazine-3-carboxamide] gave an IC50 [1] of 74 nM and an IC50 [2] of 33.5 nM.

Cc1cc(=O)c(C(=O)N[C@H]2COc3cc(C#N)ccc3N(C)C2=O)nn1-c1ccc(C#N)cc1 [Example 60, (S)-N-(8-cyano-5-methyl-4-oxo-2,3,4,5-tetrahydrobenzo[b][1,4]oxazepin-3-yl)-1-(4-cyanophenyl)-6-methyl-4-oxo-1,4-dihydropyridazine-3-carboxamide] showed an IC50 [1] of 424 nM and an IC50 [2] of 84.9 nM.

Cc1cc(=O)c(C(=O)N[C@H]2COc3cc(C#N)ccc3N(C)C2=O)nn1-c1cccc(F)c1 [Example 61, (S)-N-(8-cyano-5-methyl-4-oxo-2,3,4,5-tetrahydrobenzo[b][1,4]oxazepin-3-yl)-1-(3-fluorophenyl)-6-methyl-4-oxo-1,4-dihydropyridazine-3-carboxamide] showed an IC50 [1] of 88 nM and an IC50 [2] of 57.4 nM.

In the case of Cc1ccc(-n2nc(C(=O)N[C@H]3COc4cc(C#N)ccc4N(C)C3=O)c(=O)cc2C)cc1F [Example 62, (S)-N-(8-cyano-5-methyl-4-oxo-2,3,4,5-tetrahydrobenzo[b][1,4]oxazepin-3-yl)-1-(3-fluoro-4-methylphenyl)-6-methyl-4-oxo-1,4-dihydropyridazine-3-carboxamide], the IC50 [1] is reported as 67 nM and the IC50 [2] is reported as 48 nM.

Cc1cccc(-n2nc(C(=O)NC3CCc4ccccc4NC3=O)c(=O)cc2C)c1 (centres unmarked) [Example 64, 6-methyl-4-oxo-N-(2-oxo-2,3,4,5-tetrahydro-1H-benzo[b]azepin-3-yl)-1-(m-tolyl)-1,4-dihydropyridazine-3-carboxamide] showed an IC50 [1] of 77.8 nM and an IC50 [2] of 43.1 nM.

Compound COc1ccc(-n2nc(C(=O)NC3CCc4ccccc4NC3=O)c(=O)cc2C)cc1 (centres unmarked) [Example 65, 1-(4-methoxyphenyl)-6-methyl-4-oxo-N-(2-oxo-2,3,4,5-tetrahydro-1H-benzo[b]azepin-3-yl)-1,4-dihydropyridazine-3-carboxamide] has an IC50 [1] of 124 nM and an IC50 [2] of 47.6 nM.

Work on Cc1cc(=O)c(C(=O)NC2CCc3ccccc3NC2=O)nn1-c1ccc(Cl)cc1 (centres unmarked) [Example 66, 1-(4-chlorophenyl)-6-methyl-4-oxo-N-(2-oxo-2,3,4,5-tetrahydro-1H-benzo[b]azepin-3-yl)-1,4-dihydro-pyridazine-3-carboxamide] yielded an IC50 [1] of 80.4 nM and an IC50 [2] of 30.2 nM.

In the case of COc1cccc(-n2nc(C(=O)NC3CCc4ccccc4NC3=O)c(=O)cc2C)c1 (centres unmarked) [Example 67, 1-(3-methoxyphenyl)-6-methyl-4-oxo-N-(2-oxo-2,3,4,5-tetrahydro-1H-benzo[b]-azepin-3-yl)-1,4-dihydropyridazine-3-carboxamide], the IC50 [1] is reported as 281 nM and the IC50 [2] is reported as 68.2 nM.

Cc1cc(=O)c(C(=O)NC2CCc3ccccc3NC2=O)nn1-c1cccc(Cl)c1 (centres unmarked) [Example 68, 1-(3-chlorophenyl)-6-methyl-4-oxo-N-(2-oxo-2,3,4,5-tetrahydro-1H-benzo[b]-azepin-3-yl)-1,4-dihydropyridazine-3-carboxamide] gave an IC50 [1] of 142 nM and an IC50 [2] of 57.8 nM.

Cc1cc(=O)c(C(=O)NC2CCc3cc(F)cc(F)c3NC2)nn1-c1ccccc1 (centres unmarked) [Example 69, N-(7,9-difluoro-2,3,4,5-tetrahydro-1H-benzo[b]azepin-3-yl)-6-methyl-4-oxo-1-phenyl-1,4-dihydropyridazine-3-carboxamide] showed an IC50 [1] of 10000 nM and an IC50 [2] of 8500 nM.

For O=C(NC1CCc2ccccc2NC1=O)c1nn(-c2ccccc2)c2ccccc2c1=O (centres unmarked) [Example 70, 4-oxo-N-(2-oxo-2,3,4,5-tetrahydro-1H-benzo[b]azepin-3-yl)-1-phenyl-1,4-dihydrocinnoline-3-carboxamide], the IC50 [1] was 227 nM and the IC50 [2] was 28.9 nM.

Work on Cc1ccc(-n2nc(C(=O)NC3CCc4ccccc4NC3=O)c(=O)cc2C)cc1 (centres unmarked) [Example 71, 6-methyl-4-oxo-N-(2-oxo-2,3,4,5-tetrahydro-1H-benzo[b]azepin-3-yl)-1-(p-tolyl)-1,4-dihydropyridazine-3-carboxamide] yielded an IC50 [1] of 50.2 nM and an IC50 [2] of 30.9 nM.

In the case of Cc1cc(=O)c(C(=O)NC2CCn3nccc3N(C)C2=O)nn1-c1ccccc1 (stereo not drawn) [Example 72, 6-methyl-N-(4-methyl-5-oxo-5,6,7,8-tetrahydro-4H-pyrazolo[1,5-a][1,3]diazepin-6-yl)-4-oxo-l-phenyl-1,4-dihydropyridazine-3-carboxamide], the IC50 [1] is reported as 222 nM and the IC50 [2] is reported as 90.6 nM.
